As usually defined, the MIC is the lowest concentration that inhibits growth of the organism. One may read the IC50 as the concentration that inhibits the measured activity by half. A lower IC50 goes with higher potency.

The record followed here is ChEMBL document CHEMBL3763135, “Synthesis and evaluation of thiophene-based guanylhydrazones (iminoguanidines) efficient against panel of voriconazole-resistant fungal isolates” (Bioorg Med Chem, 2016).

Activity calls are given as the source filed them. The calls are words filed in the database; no cut-off is given here.

Series [1] in a line: Hemolytic effect in sheep RBC assessed as release of hemoglobin at 40 ug/ml after 1 hr. As to conditions: erythrocyte. The class given is ADME, cell-based, Ovis aries.
In series [2] the test system is Pichia kudriavzevii. Put plainly: Antibiofilm activity against Pichia kudriavzevii ATCC 34135 assessed as disruption of preformed biofilm after 24 hrs by concanavalin A-FITC-staining based fluorescence microscopic analysis. The class given is functional.
For series [3], the system named is Microsporum canis. Put plainly: Antifungal activity against Microsporum canis DMT2 by broth dilution method. Format: functional. For orientation: Broth dilution looks for growth in wells or tubes with falling amounts of substance.
Series [4] has as its system Aspergillus fumigatus. Put plainly: Antifungal activity against Aspergillus fumigatus ATCC 13073 by broth dilution method. The class given is functional.
The subject of series [5] is Candida parapsilosis. Put plainly: Antibiofilm activity against Candida parapsilosis C27 assessed as disruption of preformed biofilm after 24 hrs by concanavalin A-FITC-staining based fluorescence microscopic analysis. The class given is functional.
The subject of series [6] is Pichia kudriavzevii. Put plainly: Antifungal activity against Candida krusei ATCC 34135 by broth dilution method. Format: functional.
Series [7] concerns Candida albicans. Put plainly: Antibiofilm activity against Candida albicans assessed as inhibition of Spider medium-induced hyphae formation at sub-MIC after 24 hrs by propidium iodide and FITC-conjugated concanavaline A staining based fluorescence microscopy. The class given is functional, organism-based.
Series [8] concerns Candida albicans. Put plainly: Induction of DNA intercalation with Candida albicans genomic DNA at 25 ug/ml after 12 hrs by ethidium bromide staining based gel electrophoresis method.
The subject of series [9] is Candida albicans. Put plainly: Antifungal activity against Candida albicans ATCC 10231 by broth dilution method. The class given is functional.
The test system of series [10] is Fusarium oxysporum. Put plainly: Antifungal activity against Fusarium oxysporum AB18 by broth dilution method. Format: functional.
Series [11] deals with Candida parapsilosis. Put plainly: Antifungal activity against Candida parapsilosis C27 by broth dilution method. The following applies: Lodderomyces parapsilosis. The class given is functional.
The test system of series [12] is Candida albicans. Put plainly: Antibiofilm activity against Candida albicans ATCC 10231 assessed as disruption of preformed biofilm after 24 hrs by concanavalin A-FITC-staining based fluorescence microscopic analysis. Format: functional.
Series [13] concerns Trichophyton mentagrophytes. Put plainly: Antifungal activity against Trichophyton mentagrophytes DMT4 by broth dilution method. Format: functional.
Series [14] has as its system Candida albicans. Put plainly: Antifungal activity against Candida albicans CA5 by broth dilution method. The class given is functional.
Series [15] has as its system MRC5. Put plainly: Cytotoxicity against human MRC5 cells after 48 hrs by MTT assay. Format: cell-based. As to conditions: MRC5, 48 h. (In general: Formazan colour is commonly taken as a measure of viable cells.)
A short description of series [16]: Hemolytic effect in sheep RBC assessed as release of hemoglobin at 25 ug/ml after 1 hr. The following applies: sheep red blood cells, read-out: Activity. The class given is ADME, cell-based, Ovis aries, Erythrocyte.

With NYSTATIN, the Activity in series [1] is on record as 35%.
As to `Cl.Cl.N=C(N)N/N=C/c1ccc(-c2ccncc2)s1`, the MBEC is >1000 µg/mL in [2], >1000 µg/mL in series [5] and 1000 µg/mL in series [12]. Also, the MIC in series [3] is 125 µg/mL; in [4], 250 µg/mL; in series [6], > 250 µg/mL; in [9], 15.6 µg/mL; in series [10], > 250 µg/mL; in series [11] it was > 250 µg/mL. The results for the MIC in [13] and in series [14] were 25 µg/mL and 125 µg/mL, respectively. The result in series [7] and in [8] was Active. Further, the IC50 in series [15] worked out at 25 µg/mL. Moreover, the hemolysis at 1 h, 25 ug/ml in [16] came to 20%.
